From patent publication US11186583B2, “5-alkylthio-7-[(4-arylbenzyl)amino]-1(2)H-pyrazolo[4,3-d]pyrimidines for treatment of lymphoma” (UNIVERZITA PALACKEHO V OLOMOUCI, priority 2018, dated 2021)

Assays:
Format in all cases: cell-based
[1] = tested on: OCI-LY2 (diffuse large B-cell lymphoma, subtype—germinal center B-cell); assay: MTT cytotoxicity assay, OCI-LY2 lymphoma cell line; settings: 72 h, OCI-LY2 cells, three days, read-out: Lymphoma cell lines GI50, OCI-LY2
Text: (§1) Cytotoxicity of the compounds is the major property determining their anti-lymphoma efficacy in vitro. One of the parameters used, as the basis for cytotoxicity assays, is the metabolic activity of viable cells. For example 2, a microtiter assay, which uses (3-(4,5-dimethylthiazol-2-yl)-2,5-diphenyltetrazolium bromide (MTT), is widely used to quantitate cell proliferation and cytotoxicity. This assay is widely used in drug screening programs and in chemosensitivity testing. Because only metabolically active living cells reduce MTT to correspond purple formazan dye, these assays detect viable cells exclusively. The quantity of reduced MTT corresponds to the number of vital cells in the culture.
(§2) The compounds were assayed using the following lymphoma cell lines: HT (diffuse large B-cell lymphoma, subtype—germinal center B-cell), OCI-LY2 (diffuse large B-cell lymphoma, subtype—germinal center B-cell), MINO (mantle cell lymphoma). All cell lines were grown in RPMI medium supplemented with fetal bovine serum and glutamine and maintained at 37° C. in a humidified atmosphere with 5% CO2. For cytotoxicity assays, 5000-10000 cells were seeded into each well of 96 well plate, allowed to stabilize for at least 8 h and then tested compounds were added at various concentrations ranging from 100 to 0.01 μM in triplicates. After three days, MTT solution (5 mg/ml; Sigma, St. Louis, USA) was added to cells and medium was replaced with DMSO after five hours. The absorbance was measured at 620 nm by employing a microplate reader. MTT assays were repeated 3 times for each drug application and untreated cells were used as reference. The GI50 values, drug concentrations lethal to 50% of the cells, were calculated from the obtained dose response curves.

[2] = tested on: HT (diffuse large B-cell lymphoma, subtype—germinal center B-cell); assay: MTT cytotoxicity assay, HT lymphoma cell line; settings: Homo sapiens, 72 h, HT cells, three days, read-out: Lymphoma cell lines GI50, HT
Text: as §1, §2

[3] = tested on: MINO (mantle cell lymphoma); assay: MTT cytotoxicity assay, MINO lymphoma cell line; settings: Homo sapiens, 72 h, MINO cells, three days, read-out: Lymphoma cell lines GI50, MINO
Text: as §1, §2

SMILES | GI50 [1] | GI50 [2] | GI50 [3]
CCC(O)CSc1nc(NCc2ccc(-c3ccccn3)cc2)c2[nH]nc(C(C)C)c2n1 (stereo not drawn) [Compound 4.15, 5-(2-Hydroxy-1-butyl)thio-3-isopropyl-7-[4-(2-pyridyl)benzyl]amino-1(2)H-pyrazolo[4,3-d]pyrimidine] | 280 nM | 273 nM | 427 nM
CC(C)c1n[nH]c2c(NCc3ccc(-c4ccccn4)cc3)nc(SCC(O)CN3CCOCC3)nc12 (stereo not drawn) [Compound 4.24] | 200 nM | 200 nM | 243 nM
CC(C)c1n[nH]c2c(NCc3ccc(-c4ccccn4)cc3)nc(SCCCO)nc12 [Compound 4.8, 5-(3-Hydroxy-1-propyl)thio-3-isopropyl-7-[4-(2-pyridyl)benzyl]amino-1(2)H-pyrazolo[4,3-d]pyrimidine] | 102 nM | 109 nM | 89 nM
CC(C)c1n[nH]c2c(NCc3ccc(-c4ccccn4)cc3)nc(SCCn3ccnc3)nc12 [Compound 4.26, 5-[2-(1-Imidazolyl)-1-ethyl]thio-3-isopropyl-7-[4-(2-pyridyl)benzyl]amino-1(2)H-pyrazolo[4,3-d]pyrimidine] | 145 nM | 155 nM | 135 nM
CC(C)c1n[nH]c2c(NCc3ccc(-c4ccccn4)cc3)nc(SCCNC(=N)N)nc12 [Compound 4.10, 5-(2-Guanidino-1-ethyl)thio-3-isopropyl-7-[4-(2-pyridyl)benzyl]amino-1(2)H-pyrazolo[4,3-d]pyrimidine] | 812 nM | 390 nM | 390 nM
CC(C)c1n[nH]c2c(NCc3ccc(-c4ccccn4)cc3)nc(SCCCN(C)C)nc12 [Compound 4.20, 5[3-(Dimethylamino)-1-propyl]thio-3-isopropyl-7-[4-(2-pyridyl)benzyl]amino-1(2)H-pyrazolo[4,3-d]pyrimidine] | 109 nM | 105 nM | 76 nM
CC(C)c1n[nH]c2c(NCc3ccc(-c4ccccn4)cc3)nc(SCC(O)CO)nc12 (stereo not drawn) [Compound 4.18, 5-(2,3-Dihydroxy-1-propyl)thio-3-isopropyl-7-[4-(2-pyridyl)benzyl]amino-1(2)H-pyrazolo[4,3-d]pyrimidine] | 22 nM | 21 nM | 10 nM
CC(C)c1n[nH]c2c(NCc3ccc(-c4ccccn4)cc3)nc(SCCN(C)C)nc12 [Compound 4.19] | 61 nM | 54 nM | 93 nM
CSCCSc1nc(NCc2ccc(-c3ccccn3)cc2)c2[nH]nc(C(C)C)c2n1 [Compound 4.30, 5-(2-Methylthio-1-ethyl)thio-3-isopropyl-7-[4-(2-pyridyl)benzyl]amino-1(2)H-pyrazolo[4,3-d]pyrimidine] | 668 nM | 975 nM | 773 nM
CC(O)CSc1nc(NCc2ccc(-c3ccccn3)cc2)c2[nH]nc(C(C)C)c2n1 (stereo not drawn) [Compound 4.3, 5-(2-Hydroxy-1-propyl)thio-3-isopropyl-7-[4-(2-pyridyl)benzyl]amino-1(2)H-pyrazolo[4,3-d]pyrimidine] | 152 nM | 62 nM | 81 nM
CC(C)c1n[nH]c2c(NCc3ccc(-c4ccccn4)cc3)nc(SCC(O)C(F)(F)F)nc12 (stereo not drawn) [Compound 4.32, 5-(3,3,3-Trifluoro-2-hydroxy-1-propyl)thio-3-isopropyl-7-[4-(2-pyridyl)benzyl]amino-1(2)H-pyrazolo[4,3-d]pyrimidine] | 585 nM | 690 nM | 641 nM
CNCCSc1nc(NCc2ccc(-c3ccccn3)cc2)c2[nH]nc(C(C)C)c2n1 [Compound 4.34, 5-(3-Methylamino-1-ethyl)thio-3-isopropyl-7-[4-(2-pyridyl)benzyl]amino-1(2)H-pyrazolo[4,3-d]pyrimidine] | 92 nM | 56 nM | 40 nM
CC(C)c1n[nH]c2c(NCc3ccc(-c4ccccn4)cc3)nc(SCC(O)CN3CCNCC3)nc12 (stereo not drawn) [Compound 4.25, 5-[3-(1-Piperazinyl)-2-hydroxy-1-propyl]thio-3-isopropyl-7-[4-(2-pyridyl)benzyl]amino-1(2)H-pyrazolo[4,3-d]pyrimidine] | 435 nM | 332 nM | 767 nM
CC(C)c1n[nH]c2c(NCc3ccc(-c4ccccn4)cc3)nc(SC3CCCCC3O)nc12 (stereo not drawn) [Compound 4.14, 5-(2-Hydroxycyclohexyl1-yl)thio-3-isopropyl-7-[4-(2-pyridyl)benzyl]amino-1(2)H-pyrazolo[4,3-d]pyrimidine] | 680 nM | 636 nM | 530 nM
CC(C)c1n[nH]c2c(NCc3ccc(-c4ccccn4)cc3)nc(SCC(C)(C)O)nc12 [Compound 4.17, 5-(2-Hydroxy-2-methyl-1-propyl)thio-3-isopropyl-7-[4-(2-pyridyl)benzyl]amino-1(2)H-pyrazolo[4,3-d]pyrimidine] | 610 nM | 507 nM | 477 nM
C=CCSc1nc(NCc2ccc(-c3ccccn3)cc2)c2[nH]nc(C(C)C)c2n1 [Compound 4.2, 5-(Prop-2-en-1-yl)thio-3-isopropyl-7-[4-(2-pyridyl)benzyl]amino-1(2)H-pyrazolo[4,3-d]pyrimidine] | 858 nM | 1000 nM | 923 nM
CC(C)c1n[nH]c2c(NCc3ccc(-c4ccccn4)cc3)nc(SCCCN)nc12 [Compound 4.27, 5-(3-Amino-1-propyl)thio-3-isopropyl-7-[4-(2-pyridyl)benzyl]amino-1(2)H-pyrazolo[4,3-d]pyrimidine] | 151 nM | 120 nM | 156 nM
CC(C)c1n[nH]c2c(NCc3ccc(-c4ccccn4)cc3)nc(SCC(N)CN)nc12 (stereo not drawn) [Compound 4.29, 5-(2,3-Diamino-1-propyl)thio-3-isopropyl-7-[4-(2-pyridyl)benzyl]amino-1(2)H-pyrazolo[4,3-d]pyrimidine] | 780 nM | 480 nM | 770 nM
CC(C)c1n[nH]c2c(NCc3ccc(-c4ccccn4)cc3)nc(SC(CO)C(C)C)nc12 (stereo not drawn) [Compound 4.21, 5-(1-Hydroxy-3-methyl-2-butyl)thio-3-isopropyl-7-[4-(2-pyridyl)benzyl]amino-1(2)H-pyrazolo[4,3-d]pyrimidine] | 1000 nM | 980 nM | 1310 nM
CC(C)c1n[nH]c2c(NCc3ccc(-c4ccccn4)cc3)nc(SC3CCCCC3N)nc12 (stereo not drawn) [Compound 4.31, 5-(2-Aminocyclohexyl)thio-3-isopropyl-7-[4-(2-pyridyl)benzyl]amino-1(2)H-pyrazolo[4,3-d]pyrimidine] | 136 nM | 139 nM | 157 nM
COCSc1nc(NCc2ccc(-c3ccccn3)cc2)c2[nH]nc(C(C)C)c2n1 [Compound 4.33, 5-(Methoxymethyl)thio-3-isopropyl-7-[4-(2-pyridyl)benzyl]amino-1(2)H-pyrazolo[4,3-d]pyrimidine] | 285 nM | 340 nM | 243 nM
CC(C)c1n[nH]c2c(NCc3ccc(-c4ccccn4)cc3)nc(SCC(N)=O)nc12 [Compound 4.7, 5-(Carbamoylmethyl)thio-3-isopropyl-7-[4-(2-pyridyl)benzyl]amino-1(2)H-pyrazolo[4,3-d]pyrimidine] | 163 nM | 192 nM | 197 nM
CC(C)c1n[nH]c2c(NCc3ccc(-c4ccccn4)cc3)nc(SCC(C)(C)N)nc12 [Compound 4.13, 5-(2-Amino-2-methyl-1-propyl)thio-3-isopropyl-7-[4-(2-pyridyl)benzyl]amino-1(2)H-pyrazolo[4,3-d]pyrimidin] | 100 nM | 85 nM | 64 nM
CC(C)c1n[nH]c2c(NCc3ccc(-c4ccccn4)cc3)nc(SCC(O)CN)nc12 (racemic) [Compound 4.23, 5-(R/S)-(3-Amino-2-hydroxy-1-propyl)thio-3-isopropyl-7-[4-(2-pyridyl)benzyl]amino-1(2)H-pyrazolo[4,3-d]pyrimidine] | 55 nM | 55 nM | 64 nM
CC(C)c1n[nH]c2c(NCc3ccc(-c4ccccn4)cc3)nc(SC3CCCC3O)nc12 (stereo not drawn) [Compound 4.16, 5-(2-Hydroxycyclopentyl)thio-3-isopropyl-7-[4-(2-pyridyl)benzyl]amino-1(2)H-pyrazolo[4,3-d]pyrimidine] | 373 nM | 567 nM | 450 nM
CC(C)c1n[nH]c2c(NCc3ccc(-c4ccccn4)cc3)nc(SCCO)nc12 [Compound 4.1, 5-(2-Hydroxy-1-ethyl)thio-3-isopropyl-7-[4-(2-pyridyl)benzyl]amino-1(2)H-pyrazolo[4,3-d]pyrimidine] | 50 nM | 48 nM | 40 nM
CCC(CO)Sc1nc(NCc2ccc(-c3ccccn3)cc2)c2[nH]nc(C(C)C)c2n1 (stereo not drawn) [Compound 4.5, 5-(1-Hydroxy-2-butyl)thio-3-isopropyl-7-[4-(2-pyridyl)benzyl]amino-1(2)H-pyrazolo[4,3-d]pyrimidin] | 181 nM | 255 nM | 119 nM
